Results: PubChem BioAssay AID256 (DTP/NCI, 2004)
“And” between values parts separate entries of the source, which are not always exact repeats. Equal entries are not always repeated. Inconclusive results and toxic doses are left out. The calls were made as follows: active = survival T/C of 150% or more; inactive = T/C below 125% in these data.

System: CD2F1 mice, L1210 leukemia ip, survival T/C
Assay: NCI In Vivo Anticancer Drug Screen. Data for tumor model L1210 Leukemia (intraperitoneal) in CD2F1 (CDF1) mice
Details: endpoint: mean survival time, higher = longer survival
Outline: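 Ratio T/C, where T is the treated-group value and C the vehicle-dosed control value, from mice implanted with a transplantable tumor.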

[1] = dose: 100.0 mg/kg/injection, schedule: Q01DX009 (ip), vehicle: saline with Tween-80
[2] = dose: 12.5 mg/kg/injection, schedule: Q01DX009 (ip), vehicle: saline with Tween-80
[3] = dose: 25.0 mg/kg/injection, schedule: Q01DX009 (ip), vehicle: saline with Tween-80
[4] = dose: 50.0 mg/kg/injection, schedule: Q01DX009 (ip), vehicle: saline with Tween-80
[5] = dose: 200.0 mg/kg/injection, schedule: Q01DX009 (ip), vehicle: saline with Tween-80
[6] = dose: 400.0 mg/kg/injection, schedule: Q01DX009 (ip), vehicle: saline with Tween-80
[7] = dose: 100.0 mg/kg/injection, schedule: Q04DX003 (ip), vehicle: other
[8] = dose: 200.0 mg/kg/injection, schedule: Q04DX003 (ip), vehicle: other
[9] = dose: 400.0 mg/kg/injection, schedule: Q04DX003 (ip), vehicle: other

Measured: T/C

O=C(NC(=S)Nc1ccccc1C(=O)O)c1ccccc1
inactive: dose: 66.0 mg/kg/injection, schedule: Q01DX009 (ip), vehicle: saline sonified 103 % of control | dose: 100.0 mg/kg/injection, schedule: Q01DX009 (ip), vehicle: saline sonified 103 % of control | dose: 150.0 mg/kg/injection, schedule: Q01DX009 (ip), vehicle: saline sonified 103 % of control

C=CCOC(=O)Oc1ccccc1Cl
inactive: [1] 102 % of control | dose: 100.0 mg/kg/injection, schedule: Q04DX003 (ip), vehicle: saline with Tween-80 98 % of control | dose: 200.0 mg/kg/injection, schedule: Q04DX003 (ip), vehicle: saline with Tween-80 95 % of control

CC(=O)OCCC/C(=C\c1ccc(Cl)cc1)[N+](=O)[O-]
inactive: dose: 100.0 mg/kg/injection, schedule: Q01DX001 (ip), vehicle: saline 100 % of control | dose: 200.0 mg/kg/injection, schedule: Q01DX001 (ip), vehicle: saline 102 % of control | dose: 400.0 mg/kg/injection, schedule: Q01DX001 (ip), vehicle: saline 98 % of control

CNC(=O)Oc1cccc(NC(=O)OCCCCl)c1
inactive: dose: 100.0 mg/kg/injection, schedule: Q01DX001 (ip), vehicle: saline with Tween-80 100 % of control | dose: 200.0 mg/kg/injection, schedule: Q01DX001 (ip), vehicle: saline with Tween-80 105 % of control | dose: 400.0 mg/kg/injection, schedule: Q01DX001 (ip), vehicle: saline with Tween-80 105 % of control

CN(C)P(=O)(Oc1ccccc1)N(C)C
inactive: [2] 98 % of control and 100 % of control | [3] 95 % of control and 101 % of control | [4] 89 % of control and 96 % of control | [1] 94 % of control and 101 % of control | [5] 95 % of control and 96 % of control | [6] 93 % of control and 96 % of control

O=C(O)C1CC(c2ccccc2)=NN1c1ccccc1 (configuration not stated)
inactive: dose: 12.5 mg/kg/injection, schedule: Q01DX009 (ip), vehicle: water 101 % of control and 103 % of control and 104 % of control | dose: 25.0 mg/kg/injection, schedule: Q01DX009 (ip), vehicle: water 96 % of control and 101 % of control and 102 % of control | dose: 50.0 mg/kg/injection, schedule: Q01DX009 (ip), vehicle: water 96 % of control and 102 % of control (2×) | dose: 100.0 mg/kg/injection, schedule: Q01DX009 (ip), vehicle: water 93 % of control and 102 % of control and 104 % of control | dose: 200.0 mg/kg/injection, schedule: Q01DX009 (ip), vehicle: water 102 % of control (2×) and 112 % of control

O=C1CC2C=CC1CC2 (configuration not stated)
inactive: [7] 105 % of control | [8] 101 % of control | [9] 100 % of control

CC(C)(C)CC(C)(C)Nc1nc(NC(C)(C)CC(C)(C)C)nc(NC(C)(C)CC(C)(C)C)n1
inactive: [2] 101 % of control | [3] 95 % of control | [4] 97 % of control

O=C(O)CCC(NC(=O)COc1ccc(Cl)cc1Cl)C(=O)O (configuration not stated)
inactive: dose: 25.0 mg/kg/injection, schedule: Q04DX002 (ip), vehicle: saline with Tween-80 100 % of control | dose: 50.0 mg/kg/injection, schedule: Q04DX002 (ip), vehicle: saline with Tween-80 95 % of control | dose: 100.0 mg/kg/injection, schedule: Q04DX002 (ip), vehicle: saline with Tween-80 100 % of control and 101 % of control | dose: 400.0 mg/kg/injection, schedule: Q04DX002 (ip), vehicle: saline with Tween-80 93 % of control

Cc1cc(=O)n(C)c2c(C)cccc12
inactive: [1] 98 % of control | [5] 92 % of control | [6] 95 % of control

OC1CCN(c2c3ccccc3nc3ccccc23)CC1
inactive: dose: 12.5 mg/kg/injection, schedule: Q04DX002 (ip), vehicle: saline 100 % of control | dose: 25.0 mg/kg/injection, schedule: Q04DX002 (ip), vehicle: saline 100 % of control | dose: 50.0 mg/kg/injection, schedule: Q04DX002 (ip), vehicle: saline 116 % of control

CSc1cc(C)c(O)c(CO)c1
inactive: [7] 104 % of control | [8] 98 % of control | [9] 100 % of control

CN(N=Nc1ccc(C(N)=O)cc1)C(C)(C)C
inactive: dose: 18.75 mg/kg/injection, schedule: Q01DX009 (ip), vehicle: Klucel (hydroxypropylcellulose) (HPC) 97 % of control | dose: 37.5 mg/kg/injection, schedule: Q01DX009 (ip), vehicle: Klucel (hydroxypropylcellulose) (HPC) 101 % of control | dose: 75.0 mg/kg/injection, schedule: Q01DX009 (ip), vehicle: Klucel (hydroxypropylcellulose) (HPC) 100 % of control | dose: 150.0 mg/kg/injection, schedule: Q01DX009 (ip), vehicle: Klucel (hydroxypropylcellulose) (HPC) 106 % of control | dose: 300.0 mg/kg/injection, schedule: Q01DX009 (ip), vehicle: Klucel (hydroxypropylcellulose) (HPC) 119 % of control
